# The source made the active and inactive calls. The rule behind the calls is not given here.
# How the values were obtained:
# [1] = biological target: NUAK family SNF1-like kinase 1 (Homo sapiens) (UniProt O60285); test: Inhibition of full length N-terminal his6-tagged recombinant human ARK5 (2 to end residues) expressed in baculovirus Sf21 cells at 10 uM relative to control
# [2] = biological target: Ribosomal protein S6 kinase alpha-1 (Homo sapiens) (UniProt Q15418); test: Inhibition of N-terminal his6-tagged recombinant human RSK1 (2 to end residues) expressed in baculovirus Sf21 insect cells at 10 uM relative to control
# [3] = biological target: Fibroblast growth factor receptor 3 (Homo sapiens) (UniProt P22607); test: Inhibition of N-terminal his6-tagged recombinant human FGFR3 (447 to 761 residues) expressed in baculovirus Sf21 insect cells at 10 uM relative to control
# [4] = biological target: Cytoplasmic tyrosine-protein kinase BMX (Homo sapiens) (UniProt P51813); test: Inhibition of N-terminal his6-tagged recombinant human BMX expressed in baculovirus Sf21 insect cells at 10 uM relative to control
# [5] = biological target: Serine/threonine-protein kinase D1 (Homo sapiens) (UniProt Q15139); test: Inhibition of recombinant human PKC-mu at 10 uM relative to control
# Jurkat = test: Antiproliferative activity against human Jurkat cells assessed as growth inhibition incubated for 72 hrs by celltiter-glo assay; type: functional
# NCI-H1299 = test: Antiproliferative activity against human NCI-H1299 cells assessed as growth inhibition incubated for 72 hrs by celltiter-glo assay; type: functional
# SK-MEL-2 = test: Antiproliferative activity against human SK-MEL-2 cells assessed as growth inhibition incubated for 72 hrs by celltiter-glo assay; type: functional
# SK-MEL-5 = test: Antiproliferative activity against human SK-MEL-5 cells assessed as growth inhibition incubated for 72 hrs by celltiter-glo assay; type: functional
# HCC1954 = test: Antiproliferative activity against human HCC1954 cells assessed as growth inhibition incubated for 72 hrs by celltiter-glo assay; type: functional
# PANC-1 = test: Antiproliferative activity against human PANC-1 cells assessed as growth inhibition incubated for 72 hrs by celltiter-glo assay; type: functional
# A549 = test: Antiproliferative activity against human A549 cells assessed as growth inhibition incubated for 72 hrs by celltiter-glo assay; type: functional
# MCF7 = test: Antiproliferative activity against human MCF7 cells assessed as growth inhibition incubated for 72 hrs by celltiter-glo assay; type: functional
# MDA-MB-468 = test: Antiproliferative activity against human MDA-MB-468 cells assessed as growth inhibition incubated for 72 hrs by celltiter-glo assay; type: functional
# HT-29 = test: Induction of mitotic arrest in human HT-29 cells assessed as effect on pHH3 level at 10 to 250 nmol/L incubated for 19 hrs by ELISA analysis; type: functional, cell-based; conditions: dose 10-250 nmol/L
# COLO 205 [6] = test: Antitumor activity against human COLO 205 cells xenografted in ip dosed Nude mouse assessed as increase in pIk1 level measured at 24 to 48 hrs by […]; type: functional, organism-based; conditions: dose 50-100 mg/kg, time 24-48 hrs
# A-431 = test: Antiproliferative activity against human A-431 cells assessed as of viable cell signal at minimum maximum cell growth incubated for 72 hrs by celltiter-glo assay relative to control; type: functional
# BT-474 [7] = test: Antiproliferative activity against human BT-474 cells assessed as of viable cell signal at minimum maximum cell growth incubated for 72 hrs by celltiter-glo assay relative to control; type: functional
# BT-549 [8] = test: Antiproliferative activity against human BT-549 cells assessed as of viable cell signal at minimum maximum cell growth incubated for 72 hrs by celltiter-glo assay relative to control; type: functional
# BXPC-3 = test: Antiproliferative activity against human BXPC-3 cells assessed as of viable cell signal at minimum maximum cell growth incubated for 72 hrs by celltiter-glo assay relative to control; type: functional
# COLO 205 [9] = test: Antiproliferative activity against human COLO 205 cells assessed as of viable cell signal at minimum maximum cell growth incubated for 72 hrs by celltiter-glo assay relative to control; type: functional
# HeLa = test: Antiproliferative activity against human HeLa cells assessed as of viable cell signal at minimum maximum cell growth incubated for 72 hrs by celltiter-glo assay relative to control; type: functional
# HL-60 = test: Antiproliferative activity against human HL-60 cells assessed as of viable cell signal at minimum maximum cell growth incubated for 72 hrs by celltiter-glo assay relative to control; type: functional
# HT-1080 = test: Antiproliferative activity against human HT-1080 cells assessed as of viable cell signal at minimum maximum cell growth incubated for 72 hrs by celltiter-glo assay relative to control; type: functional
# NCI-H358 = test: Antiproliferative activity against human NCI-H358 cells assessed as of viable cell signal at minimum maximum cell growth incubated for 72 hrs by celltiter-glo assay relative to control; type: functional
# NCI-H460 = test: Antiproliferative activity against human NCI-H460 cells assessed as of viable cell signal at minimum maximum cell growth incubated for 72 hrs by celltiter-glo assay relative to control; type: functional
# RPMI-8226 = test: Antiproliferative activity against human RPMI-8226 cells assessed as of viable cell signal at minimum maximum cell growth incubated for 72 hrs by celltiter-glo assay relative to control; type: functional
# SAOS-2 = test: Antiproliferative activity against human SAOS-2 cells assessed as of viable cell signal at minimum maximum cell growth incubated for 72 hrs by celltiter-glo assay relative to control; type: functional
# SJSA-1 = test: Antiproliferative activity against human SJSA-1 cells assessed as of viable cell signal at minimum maximum cell growth incubated for 72 hrs by celltiter-glo assay relative to control; type: functional
# SK-OV-3 = test: Antiproliferative activity against human SK-OV-3 cells assessed as of viable cell signal at minimum maximum cell growth incubated for 72 hrs by celltiter-glo assay relative to control; type: functional
# SW480 = test: Antiproliferative activity against human SW480 cells assessed as of viable cell signal at minimum maximum cell growth incubated for 72 hrs by celltiter-glo assay relative to control; type: functional
# A498 = test: Antiproliferative activity against human A498 cells assessed as viable cell signal at maximum growth inhibition incubated for 72 hrs by celltiter-glo assay relative to control; type: functional
# ASPC1 = test: Antiproliferative activity against human ASPC1 cells assessed as viable cell signal at maximum growth inhibition incubated for 72 hrs by celltiter-glo assay relative to control; type: functional
# BT-474 [10] = test: Antiproliferative activity against human BT-474 cells assessed as viable cell signal at maximum growth inhibition incubated for 72 hrs by celltiter-glo assay relative to control; type: functional
# BT-549 [11] = test: Antiproliferative activity against human BT-549 cells assessed as viable cell signal at maximum growth inhibition incubated for 72 hrs by celltiter-glo assay relative to control; type: functional
# Calu-3 = test: Antiproliferative activity against human Calu-3 cells assessed as viable cell signal at maximum growth inhibition incubated for 72 hrs by celltiter-glo assay relative to control; type: functional
# COLO 205 [12] = test: Antiproliferative activity against human COLO 205 cells assessed as viable cell signal at maximum growth inhibition incubated for 72 hrs by celltiter-glo assay relative to control; type: functional
# MDA-MB-231 = test: Antiproliferative activity against human MDA-MB-231 cells assessed as viable cell signal at maximum growth inhibition incubated for 72 hrs by celltiter-glo assay relative to control; type: functional
# ZR-75-1 = test: Antiproliferative activity against human ZR-75-1 cells assessed as viable cell signal at maximum growth inhibition incubated for 72 hrs by celltiter-glo assay relative to control; type: functional
# Sequence of NUAK family SNF1-like kinase 1 (Homo sapiens) (O60285 whole entry): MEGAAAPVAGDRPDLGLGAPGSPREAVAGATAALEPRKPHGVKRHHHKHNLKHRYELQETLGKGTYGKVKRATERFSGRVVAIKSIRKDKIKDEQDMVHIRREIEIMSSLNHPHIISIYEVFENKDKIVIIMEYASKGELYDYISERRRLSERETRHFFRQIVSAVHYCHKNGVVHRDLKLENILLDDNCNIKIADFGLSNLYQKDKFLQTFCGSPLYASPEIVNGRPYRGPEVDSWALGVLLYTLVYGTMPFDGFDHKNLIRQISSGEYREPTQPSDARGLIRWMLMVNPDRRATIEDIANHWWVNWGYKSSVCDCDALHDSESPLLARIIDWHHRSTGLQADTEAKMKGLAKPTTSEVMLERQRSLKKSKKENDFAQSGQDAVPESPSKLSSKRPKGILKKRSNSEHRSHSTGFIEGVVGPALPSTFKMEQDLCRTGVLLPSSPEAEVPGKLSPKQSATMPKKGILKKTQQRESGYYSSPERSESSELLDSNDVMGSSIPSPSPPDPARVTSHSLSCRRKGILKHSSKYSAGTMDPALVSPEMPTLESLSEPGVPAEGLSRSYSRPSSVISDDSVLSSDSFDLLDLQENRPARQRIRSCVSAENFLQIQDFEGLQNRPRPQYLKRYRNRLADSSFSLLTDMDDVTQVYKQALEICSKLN
# Sequence of Serine/threonine-protein kinase D1 (Homo sapiens) (Q15139 whole entry): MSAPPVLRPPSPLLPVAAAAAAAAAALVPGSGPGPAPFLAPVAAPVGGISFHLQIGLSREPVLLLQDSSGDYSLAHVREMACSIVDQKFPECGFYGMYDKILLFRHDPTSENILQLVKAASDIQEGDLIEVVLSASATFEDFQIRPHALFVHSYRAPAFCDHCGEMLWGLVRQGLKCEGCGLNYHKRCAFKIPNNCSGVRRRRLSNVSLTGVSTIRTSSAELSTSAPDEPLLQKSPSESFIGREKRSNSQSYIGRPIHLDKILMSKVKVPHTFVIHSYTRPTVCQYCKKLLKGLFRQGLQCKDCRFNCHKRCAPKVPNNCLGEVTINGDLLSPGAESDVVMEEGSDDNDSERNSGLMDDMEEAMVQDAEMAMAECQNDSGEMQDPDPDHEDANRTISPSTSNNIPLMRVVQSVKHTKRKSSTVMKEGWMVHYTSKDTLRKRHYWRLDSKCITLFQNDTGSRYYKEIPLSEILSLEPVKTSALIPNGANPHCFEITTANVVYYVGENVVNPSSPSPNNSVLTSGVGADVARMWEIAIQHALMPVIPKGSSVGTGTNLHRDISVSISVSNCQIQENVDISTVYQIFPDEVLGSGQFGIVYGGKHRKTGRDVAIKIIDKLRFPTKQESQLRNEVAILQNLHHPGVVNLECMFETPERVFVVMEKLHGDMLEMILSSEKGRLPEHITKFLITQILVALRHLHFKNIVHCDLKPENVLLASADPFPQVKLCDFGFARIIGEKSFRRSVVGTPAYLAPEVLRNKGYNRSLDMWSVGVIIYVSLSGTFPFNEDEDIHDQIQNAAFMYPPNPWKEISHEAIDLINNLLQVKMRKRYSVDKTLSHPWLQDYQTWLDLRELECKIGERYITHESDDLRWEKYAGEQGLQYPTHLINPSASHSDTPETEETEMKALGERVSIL
# Sequence of Fibroblast growth factor receptor 3 (Homo sapiens) (P22607 23-806 limits assumed): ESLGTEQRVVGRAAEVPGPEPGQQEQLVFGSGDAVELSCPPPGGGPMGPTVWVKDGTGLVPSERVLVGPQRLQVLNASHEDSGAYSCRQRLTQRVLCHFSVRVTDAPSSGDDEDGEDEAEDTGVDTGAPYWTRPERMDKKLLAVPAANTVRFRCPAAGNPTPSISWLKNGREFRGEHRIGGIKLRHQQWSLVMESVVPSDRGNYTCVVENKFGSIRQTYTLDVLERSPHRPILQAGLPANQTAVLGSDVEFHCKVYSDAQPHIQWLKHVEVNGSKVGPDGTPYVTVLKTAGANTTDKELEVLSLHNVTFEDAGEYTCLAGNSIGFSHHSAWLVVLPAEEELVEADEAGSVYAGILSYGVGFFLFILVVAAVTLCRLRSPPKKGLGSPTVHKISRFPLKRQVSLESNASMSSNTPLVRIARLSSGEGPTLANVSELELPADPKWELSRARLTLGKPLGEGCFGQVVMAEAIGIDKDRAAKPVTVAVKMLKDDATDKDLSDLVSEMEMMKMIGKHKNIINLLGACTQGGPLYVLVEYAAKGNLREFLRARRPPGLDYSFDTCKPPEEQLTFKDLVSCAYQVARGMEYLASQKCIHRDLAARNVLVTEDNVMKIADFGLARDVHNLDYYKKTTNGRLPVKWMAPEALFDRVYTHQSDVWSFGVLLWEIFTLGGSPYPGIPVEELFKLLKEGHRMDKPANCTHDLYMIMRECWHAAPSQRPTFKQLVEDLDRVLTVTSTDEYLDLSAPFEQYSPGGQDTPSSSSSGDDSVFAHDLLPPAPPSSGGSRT
# Sequence of Cytoplasmic tyrosine-protein kinase BMX (Homo sapiens) (P51813 whole entry): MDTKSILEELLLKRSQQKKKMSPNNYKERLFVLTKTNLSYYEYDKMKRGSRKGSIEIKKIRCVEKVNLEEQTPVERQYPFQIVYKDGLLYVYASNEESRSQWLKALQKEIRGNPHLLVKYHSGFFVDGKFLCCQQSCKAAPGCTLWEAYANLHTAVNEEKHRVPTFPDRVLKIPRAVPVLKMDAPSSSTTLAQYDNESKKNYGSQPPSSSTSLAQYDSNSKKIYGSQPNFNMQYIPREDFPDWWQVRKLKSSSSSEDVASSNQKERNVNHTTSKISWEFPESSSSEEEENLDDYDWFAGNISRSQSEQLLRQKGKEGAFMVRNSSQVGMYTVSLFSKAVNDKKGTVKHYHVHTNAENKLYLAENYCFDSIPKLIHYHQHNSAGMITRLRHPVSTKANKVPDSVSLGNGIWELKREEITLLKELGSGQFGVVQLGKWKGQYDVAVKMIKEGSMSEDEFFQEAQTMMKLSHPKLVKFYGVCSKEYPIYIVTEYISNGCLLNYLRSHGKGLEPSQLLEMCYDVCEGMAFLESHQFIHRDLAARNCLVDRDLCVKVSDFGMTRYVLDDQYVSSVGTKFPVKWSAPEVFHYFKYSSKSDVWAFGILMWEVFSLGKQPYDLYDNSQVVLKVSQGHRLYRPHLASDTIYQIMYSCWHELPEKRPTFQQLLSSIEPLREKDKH
# Sequence of Ribosomal protein S6 kinase alpha-1 (Homo sapiens) (Q15418 whole entry, the tested form may be a part): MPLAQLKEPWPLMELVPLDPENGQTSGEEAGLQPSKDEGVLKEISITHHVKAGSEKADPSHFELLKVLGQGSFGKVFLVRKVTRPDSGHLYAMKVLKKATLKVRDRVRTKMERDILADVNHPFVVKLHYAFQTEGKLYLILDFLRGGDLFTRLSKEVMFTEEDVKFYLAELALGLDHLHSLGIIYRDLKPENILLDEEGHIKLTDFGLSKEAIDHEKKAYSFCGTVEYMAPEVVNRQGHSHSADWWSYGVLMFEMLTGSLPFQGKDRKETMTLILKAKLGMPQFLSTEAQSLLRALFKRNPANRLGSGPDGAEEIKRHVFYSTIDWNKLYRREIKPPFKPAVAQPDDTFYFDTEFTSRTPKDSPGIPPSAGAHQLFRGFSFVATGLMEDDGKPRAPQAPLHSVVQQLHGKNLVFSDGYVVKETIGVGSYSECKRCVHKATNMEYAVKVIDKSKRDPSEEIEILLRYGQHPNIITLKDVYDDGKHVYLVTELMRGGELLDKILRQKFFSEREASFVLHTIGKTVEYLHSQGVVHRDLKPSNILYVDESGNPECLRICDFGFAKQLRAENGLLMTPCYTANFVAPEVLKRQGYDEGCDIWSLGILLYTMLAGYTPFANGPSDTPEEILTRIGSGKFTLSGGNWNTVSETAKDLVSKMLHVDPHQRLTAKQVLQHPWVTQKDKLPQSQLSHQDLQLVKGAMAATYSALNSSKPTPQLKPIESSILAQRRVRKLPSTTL
smiles,measurement,setting,value
C[C@@H](Oc1cc(-n2cnc3ccc(CN4CCN(C)CC4)cc32)sc1C(N)=O)c1ccccc1C(F)(F)F [GSK-461364],inhibition,[1],79%
same,inhibition,[2],72%
same,inhibition,[3],60%
same,inhibition,[4],57%
same,inhibition,[5],53%
same,GI50,Jurkat,18.6 nM
same,GI50,NCI-H1299,61.4 nM
same,GI50,SK-MEL-2,14 nM
same,GI50,SK-MEL-5,28.4 nM
same,GI50,HCC1954,14.1 nM
same,GI50,PANC-1,44.9 nM
same,GI50,A549,34 nM
same,GI50,MCF7,6.4 nM
same,GI50,MDA-MB-468,6.35 nM
same,Activity,HT-29,Active
same,Activity,COLO 205 [6],Dose-Dependent Effect
same,Emin,A-431,151.5%
same,Emin,BT-474 [7],217%
same,Emin,BT-549 [8],77.2%
same,Emin,BXPC-3,103.3%
same,Emin,COLO 205 [9],102.6%
same,Emin,HeLa,32.2%
same,Emin,HL-60,15.3%
same,Emin,HT-1080,62.5%
same,Emin,NCI-H358,150%
same,Emin,NCI-H460,94.6%
same,Emin,RPMI-8226,34.6%
same,Emin,SAOS-2,83.5%
same,Emin,SJSA-1,123.8%
same,Emin,SK-OV-3,103.8%
same,Emin,SW480,114.7%
same,Emax,A498,774%
same,Emax,ASPC1,294%
same,Emax,BT-474 [10],226%
same,Emax,BT-549 [11],265%
same,Emax,Calu-3,190%
same,Emax,COLO 205 [12],616%
same,Emax,MDA-MB-231,520%
same,Emax,ZR-75-1,229%

# — ChEMBL document CHEMBL5705887, “Distinct concentration-dependent effects of the polo-like kinase 1-specific inhibitor GSK461364A, including differential effect on apoptosis” (Cancer Res, 2009)
